Test results taken from PubChem BioAssay AID256 (DTP/NCI, 2004).
Several values for one entry are separate records, joined by “and”; a condition that tells them apart may be missing. Identical values can stand only once. Toxic doses and inconclusive results are not listed. How the source made its calls: active means survival T/C of 150% or more; inactive means T/C below 125% in these data.

Test system: CD2F1 mice, L1210 leukemia ip, survival T/C
Assay: NCI In Vivo Anticancer Drug Screen. Data for tumor model L1210 Leukemia (intraperitoneal) in CD2F1 (CDF1) mice
Details: higher = longer survival
Method in brief: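 Implant tumor; dose compound or vehicle; measure endpoint in both groups; report treated divided by control.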

[1] = endpoint: mean survival time, dose: 50.0 mg/kg/injection, schedule: Q01DX009 (ip), vehicle: saline with Tween-80
[2] = endpoint: mean survival time, dose: 100.0 mg/kg/injection, schedule: Q01DX009 (ip), vehicle: saline with Tween-80
[3] = endpoint: mean survival time, dose: 200.0 mg/kg/injection, schedule: Q01DX009 (ip), vehicle: saline with Tween-80
[4] = endpoint: mean survival time, dose: 75.0 mg/kg/injection, schedule: Q01DX001 (ip), vehicle: other
[5] = endpoint: mean survival time, dose: 150.0 mg/kg/injection, schedule: Q01DX001 (ip), vehicle: other
[6] = endpoint: mean survival time, dose: 100.0 mg/kg/injection, schedule: Q01DX001 (ip), vehicle: saline with Tween-80
[7] = endpoint: mean survival time, dose: 200.0 mg/kg/injection, schedule: Q01DX001 (ip), vehicle: saline with Tween-80
[8] = endpoint: mean survival time, dose: 12.5 mg/kg/injection, schedule: Q01DX009 (ip), vehicle: saline with Tween-80
[9] = endpoint: mean survival time, dose: 25.0 mg/kg/injection, schedule: Q01DX009 (ip), vehicle: saline with Tween-80

Measured: T/C

Cc1ccc(C(=O)c2ccccc2Cl)cc1
inactive: endpoint: mean survival time, dose: 15.0 mg/kg/injection, schedule: Q01DX009 (ip), vehicle: Klucel (hydroxypropylcellulose) (HPC) 91 % of control | endpoint: mean survival time, dose: 30.0 mg/kg/injection, schedule: Q01DX009 (ip), vehicle: Klucel (hydroxypropylcellulose) (HPC) 87 % of control | endpoint: mean survival time, dose: 60.0 mg/kg/injection, schedule: Q01DX009 (ip), vehicle: Klucel (hydroxypropylcellulose) (HPC) 87 % of control

CCc1ccc(C(=O)N/N=C(\C)[C@]2(O)Cc3c(O)c4c(c(O)c3[C@@H](OC3CC(N)C(O)C(C)O3)C2)C(=O)c2c(OC)cccc2C4=O)cc1 (some centres undefined)
inactive: endpoint: mean survival time, dose: 0.25 mg/kg/injection, schedule: Q01DX009 (ip), vehicle: water 100 % of control | endpoint: mean survival time, dose: 0.5 mg/kg/injection, schedule: Q01DX009 (ip), vehicle: water 110 % of control | endpoint: mean survival time, dose: 1.0 mg/kg/injection, schedule: Q01DX009 (ip), vehicle: water 112 % of control | endpoint: mean survival time, dose: 8.0 mg/kg/injection, schedule: Q01DX009 (ip), vehicle: water 91 % of control

ClCC(CCl)N1CCCCC1
inactive: endpoint: mean survival time, dose: 6.25 mg/kg/injection, schedule: Q01DX001 (ip), vehicle: saline 103 % of control | endpoint: mean survival time, dose: 6.25 mg/kg/injection, schedule: Q01DX009 (ip), vehicle: saline sonified 102 % of control | endpoint: mean survival time, dose: 6.25 mg/kg/injection, schedule: Q04DX003 (ip), vehicle: saline 101 % of control | endpoint: mean survival time, dose: 12.5 mg/kg/injection, schedule: Q01DX001 (ip), vehicle: saline 104 % of control | endpoint: mean survival time, dose: 12.5 mg/kg/injection, schedule: Q01DX009 (ip), vehicle: saline sonified 109 % of control | endpoint: mean survival time, dose: 12.5 mg/kg/injection, schedule: Q04DX003 (ip), vehicle: saline 104 % of control | endpoint: mean survival time, dose: 25.0 mg/kg/injection, schedule: Q01DX001 (ip), vehicle: saline 107 % of control | endpoint: mean survival time, dose: 25.0 mg/kg/injection, schedule: Q04DX003 (ip), vehicle: saline 106 % of control

CCN(CC)C(=O)N1CCN(c2ccccc2)CC1
inactive: endpoint: mean survival time, dose: 100.0 mg/kg/injection, schedule: Q04DX003 (ip), vehicle: saline 98 % of control | endpoint: mean survival time, dose: 200.0 mg/kg/injection, schedule: Q04DX003 (ip), vehicle: saline 93 % of control

CCOC(=O)NP(=O)(N1CC1(C)C)N1CC1(C)C (centres undefined)
active: endpoint: mean survival time, dose: 45.0 mg/kg/injection, schedule: Q01DX009 (ip), vehicle: saline 170 % of control | endpoint: mean survival time, dose: 90.0 mg/kg/injection, schedule: Q01DX009 (ip), vehicle: saline 232 % of control | endpoint: mean survival time, dose: 180.0 mg/kg/injection, schedule: Q01DX009 (ip), vehicle: saline 261 % of control

C[S+](C)CC(=O)c1ccccc1
inactive: endpoint: mean survival time, dose: 50.0 mg/kg/injection, schedule: Q01DX009 (ip), vehicle: saline 97 % of control | endpoint: mean survival time, dose: 100.0 mg/kg/injection, schedule: Q01DX009 (ip), vehicle: saline 106 % of control | endpoint: mean survival time, dose: 200.0 mg/kg/injection, schedule: Q01DX009 (ip), vehicle: saline 107 % of control

Cc1ccc(S(=O)(=O)N/N=C2/CC3CCC(C)(C2)C3)cc1 (centres undefined)
inactive: endpoint: mean survival time, dose: 400.0 mg/kg/injection, schedule: Q04DX003 (ip), vehicle: saline with Tween-80 94 % of control

CCCCC#CC1CCCC1 (tested in a mixture with another compound)
inactive: [1] 103 % of control | [2] 100 % of control | [3] 100 % of control

Cc1ccc(C(=O)C(=O)c2ccc(C)cc2C)c(C)c1
inactive: [4] 94 % of control | [5] 87 % of control | endpoint: mean survival time, dose: 300.0 mg/kg/injection, schedule: Q01DX001 (ip), vehicle: other 94 % of control

c1ccc(C2=C(c3ccccc3)OCCO2)cc1
inactive: [6] 110 % of control | [7] 89 % of control | endpoint: mean survival time, dose: 400.0 mg/kg/injection, schedule: Q01DX001 (ip), vehicle: saline with Tween-80 92 % of control

N#CC(C#N)=NNc1ccc2cn[nH]c2c1
inactive: endpoint: median survival time, dose: 12.5 mg/kg/injection, schedule: Q01DX009 (ip), vehicle: Klucel (hydroxypropylcellulose) (HPC) 98 % of control | endpoint: median survival time, dose: 25.0 mg/kg/injection, schedule: Q01DX009 (ip), vehicle: Klucel (hydroxypropylcellulose) (HPC) 101 % of control | endpoint: median survival time, dose: 50.0 mg/kg/injection, schedule: Q01DX009 (ip), vehicle: Klucel (hydroxypropylcellulose) (HPC) 111 % of control | endpoint: median survival time, dose: 100.0 mg/kg/injection, schedule: Q01DX009 (ip), vehicle: Klucel (hydroxypropylcellulose) (HPC) 115 % of control

N#CCc1ccccc1-c1ccccc1CC#N
inactive: endpoint: mean survival time, dose: 5.0 mg/kg/injection, schedule: Q01DX001 (ip), vehicle: other 106 % of control | endpoint: mean survival time, dose: 10.0 mg/kg/injection, schedule: Q01DX001 (ip), vehicle: other 100 % of control | endpoint: mean survival time, dose: 20.0 mg/kg/injection, schedule: Q01DX001 (ip), vehicle: other 96 % of control | endpoint: mean survival time, dose: 40.0 mg/kg/injection, schedule: Q01DX001 (ip), vehicle: other 104 % of control

C#CC1(OC(=O)Nc2ccccc2)CCCCC1
inactive: endpoint: mean survival time, dose: 100.0 mg/kg/injection, schedule: Q04DX002 (ip), vehicle: saline with Tween-80 100 % of control | endpoint: mean survival time, dose: 200.0 mg/kg/injection, schedule: Q04DX002 (ip), vehicle: saline with Tween-80 92 % of control

ClCc1cnc[nH]1
inactive: endpoint: mean survival time, dose: 100.0 mg/kg/injection, schedule: Q04DX002 (ip), vehicle: saline 103 % of control | endpoint: mean survival time, dose: 200.0 mg/kg/injection, schedule: Q04DX002 (ip), vehicle: saline 96 % of control

CN(/N=N/c1nc[nH]c1C(N)=O)C1CCCCC1
inactive: endpoint: mean survival time, dose: 7.8 mg/kg/injection, schedule: Q01DX009 (ip), vehicle: Klucel (hydroxypropylcellulose) (HPC) 105 % of control | endpoint: mean survival time, dose: 31.2 mg/kg/injection, schedule: Q01DX009 (ip), vehicle: Klucel (hydroxypropylcellulose) (HPC) 124 % of control | endpoint: mean survival time, dose: 125.0 mg/kg/injection, schedule: Q01DX009 (ip), vehicle: Klucel (hydroxypropylcellulose) (HPC) 122 % of control | endpoint: mean survival time, dose: 250.0 mg/kg/injection, schedule: Q01DX009 (ip), vehicle: Klucel (hydroxypropylcellulose) (HPC) 70 % of control

Nc1ccc(N=Nc2cccnc2)cc1
inactive: endpoint: mean survival time, dose: 100.0 mg/kg/injection, schedule: Q04DX002 (ip), vehicle: other 103 % of control | endpoint: mean survival time, dose: 200.0 mg/kg/injection, schedule: Q04DX002 (ip), vehicle: other 88 % of control

O=CN(SSN(C=O)C1CCCCC1)C1CCCCC1
inactive: [8] 95 % of control and 103 % of control | [9] 100 % of control and 108 % of control | [1] 94 % of control and 105 % of control | [2] 94 % of control and 98 % of control | [3] 94 % of control and 103 % of control | endpoint: mean survival time, dose: 400.0 mg/kg/injection, schedule: Q01DX009 (ip), vehicle: saline with Tween-80 93 % of control and 102 % of control

N#CC1(C2(C#N)CCCCC2)CCCCC1
inactive: endpoint: mean survival time, dose: 100.0 mg/kg/injection, schedule: Q01DX001 (ip), vehicle: Klucel (hydroxypropylcellulose) (HPC) 116 % of control | endpoint: mean survival time, dose: 200.0 mg/kg/injection, schedule: Q01DX001 (ip), vehicle: Klucel (hydroxypropylcellulose) (HPC) 92 % of control | endpoint: mean survival time, dose: 400.0 mg/kg/injection, schedule: Q01DX001 (ip), vehicle: Klucel (hydroxypropylcellulose) (HPC) 100 % of control

CCCCCCOc1ccc(N=Cc2ccc(N(C)C)cc2)cc1
inactive: [4] 93 % of control | [5] 94 % of control

O=c1[nH]cc(Oc2ccccc2)c(=O)[nH]1
inactive: endpoint: mean survival time, dose: 50.0 mg/kg/injection, schedule: Q01DX001 (ip), vehicle: saline with Tween-80 104 % of control | [6] 96 % of control | [7] 98 % of control

N#Cc1ccc([N+](=O)[O-])o1
inactive: [8] 104 % of control | [9] 101 % of control | endpoint: mean survival time, dose: 25.0 mg/kg/injection, schedule: Q04DX003 (ip), vehicle: saline with Tween-80 102 % of control | [1] 92 % of control | endpoint: mean survival time, dose: 50.0 mg/kg/injection, schedule: Q04DX003 (ip), vehicle: saline with Tween-80 96 % of control

CCN(Cc1ccc(Cl)c(Cl)c1)c1ccc2nc(N)nc(N)c2c1C
inactive: endpoint: mean survival time, dose: 1.5 mg/kg/injection, schedule: Q01DX009 (ip), vehicle: water 97 % of control | endpoint: mean survival time, dose: 3.0 mg/kg/injection, schedule: Q01DX009 (ip), vehicle: water 106 % of control | endpoint: mean survival time, dose: 24.0 mg/kg/injection, schedule: Q01DX009 (ip), vehicle: water 101 % of control | endpoint: median survival time, dose: 1.5 mg/kg/injection, schedule: Q01DX009 (ip), vehicle: water 103 % of control | endpoint: median survival time, dose: 3.0 mg/kg/injection, schedule: Q01DX009 (ip), vehicle: water 111 % of control | endpoint: median survival time, dose: 6.0 mg/kg/injection, schedule: Q01DX009 (ip), vehicle: water 112 % of control

CN(C)/N=N\c1c(C(N)=O)ncn1C1OC(CO)C(O)C1O (centres undefined)
inactive: endpoint: mean survival time, dose: 100.0 mg/kg/injection, schedule: Q01DX005 (ip), vehicle: saline 104 % of control | endpoint: mean survival time, dose: 200.0 mg/kg/injection, schedule: Q01DX005 (ip), vehicle: saline 95 % of control

CC1CN1C(=O)Nc1cccc2c(NC(=O)N3CC3C)cccc12 (centres undefined)
active: endpoint: mean survival time, dose: 28.0 mg/kg/injection, schedule: Q01DX009 (ip), vehicle: Klucel (hydroxypropylcellulose) (HPC) 151 % of control
